The text below walks through data of patent US8067589B2, “Heterocyclic compounds useful in treating diseases and conditions” (Pfizer Inc, priority 2007, dated 2011).

pIC50: −log10 of the molar value.

Sequence of human recombinant H-PGDS (O60760 whole entry): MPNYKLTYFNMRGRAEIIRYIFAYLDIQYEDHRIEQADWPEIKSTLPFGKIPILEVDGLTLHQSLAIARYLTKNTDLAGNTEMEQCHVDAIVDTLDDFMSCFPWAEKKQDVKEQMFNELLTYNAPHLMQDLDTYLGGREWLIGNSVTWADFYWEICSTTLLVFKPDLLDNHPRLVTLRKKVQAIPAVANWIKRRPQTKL

This assay addresses human recombinant H-PGDS (Homo sapiens, UniProt O60760). Kind of assay: Fluoresecence Intensity h-PGDSTBA Enzyme Assay. The note with it: IC50, 5.0 μM PGH2, 2.5 mM L-Glutathione, 10 min preincubation, 4-parameter fit, highest inhibitor concentration typically 1 μM.
For the molecule `Cc1nc(-c2ccccc2)ncc1C(=O)NC1CCN(Cc2ccccc2)CC1` [Example 2, N-(1-Benzylpiperidin-4-yl)-4-methyl-2-phenylpyrimidine-5-carboxamide], the pIC50 is 7.17.

In the case of `O=C(NC1CCN(c2ncc3c(n2)CCOC3)C1)c1cnc(-c2cccc(F)c2)nc1` (stereo not drawn) [Example 81, N-[1-(7,8-Dihydro-5H-pyrano[4,3-d]pyrimidin-2-yl)pyrrolidin-3-yl]-2-(3-fluorophenyl)pyrimidine-5-carboxamide], the pIC50 was 9.66.

Turning to `COc1ccc(OCC(c2ccccc2)N2CCC(NC(=O)c3cnc(-c4cccc(F)c4)nc3)CC2)cc1` (stereo not drawn) [Example 58, 2-(3-Fluorophenyl)-N-{1-[2-(4-methoxyphenoxy)-1-phenylethyl]piperidin-4-yl}pyrimidine-5-carboxamide], the negative-log IC50 (pIC50) is 8.68.

Consider `O=C(NC1CCN(CC(F)(F)F)CC1)c1cnc(-c2ccccc2CO)nc1` [Example 113, 2-[2-(Hydroxymethyl)phenyl]-N-[1-(2,2,2-trifluoroethyl)piperidin-4-yl]pyrimidine-5-carboxamide], for which the negative-log IC50 (pIC50) was 6.00.

As for `Cc1cc(C)c(C#N)c(N2CC(NC(=O)c3cnc(-c4cccc(F)c4)nc3)C2)n1` [Example 103, N-[1-(3-Cyano-4,6-dimethylpyridin-2-yl)azetidin-3-yl]-2-(3-fluorophenyl)pyrimidine-5-carboxamide], the negative logarithm of the IC50 (pIC50) was 9.09.

In the case of `O=C(NC1CCN(C2Cc3ccccc3C2)C1=O)c1cnc(-c2cccc(F)c2)nc1` (stereo not drawn) [Example 90, N-[1-(2,3-Dihydro-1H-inden-2-yl)-2-oxopyrrolidin-3-yl]-2-(3-fluorophenyl)pyrimidine-5-carboxamide], the negative-log IC50 (pIC50) is 9.09.

Turning to `O=C(NC1CCN(Cc2ccccc2)CC1)c1cnc(-c2ccccc2)nc1` [Example 12, N-(1-Benzylpiperidin-4-yl)-2-phenylpyrimidine-5-carboxamide], the pIC50 is 9.37.

`CCCCN1CCC(NC(=O)c2cnc(-c3cccc(F)c3)nc2)CC1` [Example 61, N-(1-Butylpiperidin-4-yl)-2-(3-fluorophenyl)pyrimidine-5-carboxamide]: the pIC50 is 9.24.

In the case of `O=C(NC1CCN(CC2CCCC2)CC1)c1cnc(-c2cccc(F)c2)nc1` [Example 66, N-[1-(Cyclopentylmethyl)piperidin-4-yl]-2-(3-fluorophenyl)pyrimidine-5-carboxamide], the negative logarithm of the IC50 (pIC50) was 9.45.

In the case of `CC(=O)c1cccc(-c2ncc(C(=O)NC3CCN(C(=O)C(C)(C)C)CC3)cn2)c1` [Example 142, 2-(3-Acetylphenyl)-N-[1-(2,2-dimethylpropanoyl)piperidin-4-yl]pyrimidine-5-carboxamide], the pIC50 was 7.19.

Consider `O=C(NC1CCN(C(COc2ccc(F)c(F)c2F)c2ccccc2)CC1)c1cnc(-c2cccc(F)c2)nc1` (stereo not drawn) [Example 55, 2-(3-Fluorophenyl)-N-{1-[1-phenyl-2-(2,3,4-trifluorophenoxy)ethyl]piperidin-4-yl}pyrimidine-5-carboxamide], for which the pIC50 is 7.34.

`O=C(NC1CCN(C(COc2ccc(F)c(Cl)c2)c2ccccc2)CC1)c1cnc(-c2cccc(F)c2)nc1` (stereo not drawn) [Example 42, N-{1-[2-(3-Chloro-4-fluorophenoxy)-1-phenylethyl]piperidin-4-yl}-2-(3-fluorophenyl)pyrimidine-5-carboxamide]: the negative logarithm of the IC50 (pIC50) is 7.26.

On to `O=C(NC1CCN(C(COc2cc(F)ccc2F)c2ccccc2)CC1)c1cnc(-c2cccc(F)c2)nc1` (stereo not drawn) [Example 51, N-{1-[2-(2,5-Difluorophenoxy)-1-phenylethyl]piperidin-4-yl}-2-(3-fluorophenyl)pyrimidine-5-carboxamide], for which the negative-log IC50 (pIC50) was 8.00.

With `O=C(NC1CCN(Cc2ccccc2F)CC1)c1cnc(-c2cccc(F)c2)nc1` [Example 64, N-[1-(2-Fluorobenzyl)piperidin-4-yl]-2-(3-fluorophenyl)pyrimidine-5-carboxamide], the pIC50 is 9.80.

With `CC(C)(C)OC(=O)N1C[C@@H]2[C@H](C1)[C@H]2NC(=O)c1cnc(-c2cccc(F)c2)nc1` [Example 71, tert-Butyl (1R,5S,6s)-6-({[2-(3-fluorophenyl)pyrimidin-5-yl]carbonyl}amino)-3-azabicyclo[3.1.0]hexane-3-carboxylate], the pIC50 was 9.45.

By pIC50 is commonly meant the negative decadic logarithm of the IC50, by convention in mol/L.
